Drawing on patent US12415794B2 (Edgewise Therapeutics, Inc., priority 2018, dated 2025), this text covers IC50 for 32 molecules.

Each structure is given as a SMILES string. Some results are limits rather than exact numbers.

Assay [1] deals with skeletal myofibrils (myosin ATPase). Nature of the assay: Skeletal Myofibril ATPase Assay. The class given is biochemical. The method in brief: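 Skeletal myofibril ATPase measured by PK-LDH coupled NADH depletion, absorbance 340 nm read every 1.5-2 min over 45 min. Max−min rate normalized to 1% DMSO vehicle as 100%; IC50 from four-parameter logistic fit with bottom ≥0. Cardiac myofibrils used as counter-screen.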

Assay [2] addresses T1, cardiac myofibrils (myosin ATPase).
T1 construct: frozen myofibril pellets obtained from cardiac tissue; from tissue
Description: Cardiac Myofibril ATPase Assay (counter screen). The class given is biochemical. As to conditions: myofibrils 1.0 mg/mL, KCl omitted. The method in brief: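 Frozen cardiac myofibrils at 1.0 mg/mL final, KCl omitted, in a PK-LDH coupled ATPase assay; ADP production tracked as NADH loss by absorbance at 340 nm. Inhibition taken as reduced rate relative to vehicle controls, with IC50 derived.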

T1 sequence (P12883 whole entry): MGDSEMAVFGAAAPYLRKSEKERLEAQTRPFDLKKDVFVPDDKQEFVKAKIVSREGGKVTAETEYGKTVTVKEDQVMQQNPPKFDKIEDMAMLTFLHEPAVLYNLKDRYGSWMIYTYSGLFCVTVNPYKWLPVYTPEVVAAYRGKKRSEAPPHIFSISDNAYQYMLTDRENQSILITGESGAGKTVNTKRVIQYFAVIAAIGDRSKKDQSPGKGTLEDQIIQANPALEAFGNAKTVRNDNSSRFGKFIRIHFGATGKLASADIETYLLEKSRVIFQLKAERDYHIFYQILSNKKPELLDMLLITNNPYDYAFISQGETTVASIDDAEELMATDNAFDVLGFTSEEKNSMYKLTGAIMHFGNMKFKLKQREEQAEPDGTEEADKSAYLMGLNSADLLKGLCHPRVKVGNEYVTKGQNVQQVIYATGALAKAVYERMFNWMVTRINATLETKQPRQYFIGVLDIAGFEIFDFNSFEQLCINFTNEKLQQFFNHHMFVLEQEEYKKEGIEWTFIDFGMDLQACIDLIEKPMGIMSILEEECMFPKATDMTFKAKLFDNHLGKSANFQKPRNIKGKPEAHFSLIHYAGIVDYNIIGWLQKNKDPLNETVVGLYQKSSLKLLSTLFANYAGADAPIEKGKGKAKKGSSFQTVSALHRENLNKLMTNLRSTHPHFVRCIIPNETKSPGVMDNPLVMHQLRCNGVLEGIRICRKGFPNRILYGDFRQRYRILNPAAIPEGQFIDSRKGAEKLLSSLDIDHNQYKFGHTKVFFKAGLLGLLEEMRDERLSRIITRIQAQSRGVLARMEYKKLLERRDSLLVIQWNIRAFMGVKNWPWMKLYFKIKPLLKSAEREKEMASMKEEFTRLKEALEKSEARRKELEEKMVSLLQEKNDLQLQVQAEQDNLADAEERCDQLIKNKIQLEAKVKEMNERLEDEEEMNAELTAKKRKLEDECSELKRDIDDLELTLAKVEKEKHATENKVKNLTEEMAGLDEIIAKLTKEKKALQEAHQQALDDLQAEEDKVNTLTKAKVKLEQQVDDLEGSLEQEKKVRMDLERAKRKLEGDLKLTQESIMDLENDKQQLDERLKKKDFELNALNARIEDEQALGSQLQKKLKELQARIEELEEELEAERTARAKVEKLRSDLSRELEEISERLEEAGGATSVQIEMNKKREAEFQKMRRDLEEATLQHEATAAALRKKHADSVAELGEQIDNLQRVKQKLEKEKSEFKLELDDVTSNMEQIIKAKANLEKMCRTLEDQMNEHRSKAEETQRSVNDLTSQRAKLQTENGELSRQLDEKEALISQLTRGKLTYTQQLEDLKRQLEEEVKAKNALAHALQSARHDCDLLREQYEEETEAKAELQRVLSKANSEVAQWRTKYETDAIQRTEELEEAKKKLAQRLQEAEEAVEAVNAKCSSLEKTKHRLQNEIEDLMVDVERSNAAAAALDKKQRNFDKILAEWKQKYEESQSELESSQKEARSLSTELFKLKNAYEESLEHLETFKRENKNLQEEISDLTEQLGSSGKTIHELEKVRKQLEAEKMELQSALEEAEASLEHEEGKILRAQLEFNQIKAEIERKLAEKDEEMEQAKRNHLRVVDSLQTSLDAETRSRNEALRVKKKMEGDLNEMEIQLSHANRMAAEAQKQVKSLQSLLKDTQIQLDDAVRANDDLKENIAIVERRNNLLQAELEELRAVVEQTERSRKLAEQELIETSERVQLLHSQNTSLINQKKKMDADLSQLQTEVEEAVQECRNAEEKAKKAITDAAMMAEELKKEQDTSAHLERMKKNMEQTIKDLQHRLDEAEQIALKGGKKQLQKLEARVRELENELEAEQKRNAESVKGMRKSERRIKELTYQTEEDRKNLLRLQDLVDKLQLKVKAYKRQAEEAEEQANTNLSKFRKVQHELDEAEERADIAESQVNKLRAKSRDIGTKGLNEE
T1 sequence (P08590 whole entry partner): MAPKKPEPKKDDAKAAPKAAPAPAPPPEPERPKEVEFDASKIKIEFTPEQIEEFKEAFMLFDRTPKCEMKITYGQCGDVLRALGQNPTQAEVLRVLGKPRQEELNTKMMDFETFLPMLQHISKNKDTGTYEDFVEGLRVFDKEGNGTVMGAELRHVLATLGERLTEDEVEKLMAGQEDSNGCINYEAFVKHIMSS
T1 sequence (P10916 whole entry partner): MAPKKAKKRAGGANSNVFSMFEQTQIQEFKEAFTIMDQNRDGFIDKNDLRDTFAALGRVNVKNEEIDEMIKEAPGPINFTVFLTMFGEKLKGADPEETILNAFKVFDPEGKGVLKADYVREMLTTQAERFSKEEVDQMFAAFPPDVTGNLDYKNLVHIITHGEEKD

As for `COc1ccc(-c2ccc(=O)n(CC(=O)NCc3ccc(OC)c(OC)c3)n2)cc1` [IIIb-49, N-(3,4-dimethoxybenzyl)-2-(3-(4-methoxyphenyl)-6-oxopyridazin-1(6H)-yl)acetamide], the IC50 in assay [1] (Table 4C) and in assay [2] (Table 5C) was greater than 100 µM each time.

As to `COc1ccc(-c2ccc(=O)n(CC(=O)NC(C)CCc3ccccc3)n2)c(F)c1` (stereo not shown) [IIIb-36, 2-(3-(2-fluoro-4-methoxyphenyl)-6-oxopyridazin-1(6H)-yl)-N-(4-phenylbutan-2-yl)acetamide], the IC50 in assay [1] (Table 4C) is 10 to 100 µM; in assay [2] (Table 5C), greater than 100 µM.

In the case of `COc1ccc(-c2ccc(=O)n(CC(=O)Nc3ccc4c(c3)OCCO4)n2)cc1` [IIIb-16, N-(2,3-dihydrobenzo[b][1,4]dioxin-6-yl)-2-(3-(4-methoxyphenyl)-6-oxopyridazin-1(6H)-yl)acetamide], the figures for the IC50 in assay [1] (Table 4C) and in assay [2] (Table 5C) were less than 10 µM and greater than 100 µM, respectively.

`O=C(Cn1nc(-c2ccc(Cl)cc2)ccc1=O)Nc1ccc2[nH]ccc2c1` [IIIc-22, 2-(3-(4-chlorophenyl)-6-oxopyridazin-1(6H)-yl)-N-(1H-indol-5-yl)acetamide]: the figures for the IC50 in assay [1] (Table 4C) and in assay [2] (Table 5C) were less than 10 µM and greater than 100 µM, respectively.

For `CC(C)c1cccc(NC(=O)Cn2nc(-c3ccc4c(c3)OCCCO4)ccc2=O)c1` [IIIb-5, 2-(3-(3,4-dihydro-2H-benzo[b][1,4]dioxepin-7-yl)-6-oxopyridazin-1(6H)-yl)-N-(3-isopropylphenyl) acetamide], the IC50 was less than 10 µM in assay [1] (Table 4C) and 10 to 100 µM in assay [2] (Table 5C).

Take `CCNC(=O)Cn1nc(-c2ccc(OCCCN(C)C)nc2)ccc1=O` [Compound I-28, 2-(3-(6-(3-(dimethylamino)propoxy)pyridin-3-yl)-6-oxopyridazin-1(6H)-yl)-N-ethylacetamide]: the IC50 in assay [1] (Table 4A) and in assay [2] (Table 5A) was greater than 100 µM throughout.

Take `COc1ccc(-c2ccc(=O)n(CC(=O)NCc3ccccc3C(F)(F)F)n2)cc1` [IIIa-11, 2-(3-(4-methoxyphenyl)-6-oxopyridazin-1(6H)-yl)-N-(2-(trifluoromethyl)benzyl)acetamide]: the figures for the IC50 in assay [1] (Table 4C) and in assay [2] (Table 5C) were less than 10 µM and greater than 100 µM, respectively.

Regarding `CCNC(=O)Cn1nc(-c2ccc(OCC(F)(F)F)cc2)ccc1=O` [II-6, N-ethyl-2-(6-oxo-3-(4-(2,2,2-trifluoroethoxy)phenyl)pyridazin-1(6H)-yl)acetamide], the results for the 50% inhibitory concentration (IC50) in assay [1] (Table 4B) and in assay [2] (Table 5B) were less than 10 µM and greater than 100 µM, respectively.

For `O=C(Cn1nc(-c2ccccc2)ccc1=O)NCc1ccccc1Cl` [IIIc-47, N-(2-chlorobenzyl)-2-(6-oxo-3-phenylpyridazin-1(6H)-yl)acetamide], the results for the IC50 in assay [1] (Table 4C) and in assay [2] (Table 5C) were 10 to 100 µM and greater than 100 µM, respectively.

As for `COc1ccc(-c2ccc(=O)n(CC(=O)NCc3cccc(C)c3)n2)cc1` [IIIa-10, 2-(3-(4-methoxyphenyl)-6-oxopyridazin-1(6H)-yl)-N-(3-methylbenzyl) acetamide], the IC50 was less than 10 µM in assay [1] (Table 4C) and greater than 100 µM in assay [2] (Table 5C).

`O=C(Cn1nc(-c2ccc(OC(F)F)nc2)ccc1=O)NCc1cccc(Cl)c1` [Compound I-76, N-(3-chlorobenzyl)-2-(3-(6-(difluoromethoxy)pyridin-3-yl)-6-oxopyridazin-1(6H)-yl)acetamide]: the IC50 in assay [1] (Table 4A) is 10 to 100 µM; in assay [2] (Table 5A) it was greater than 100 µM.

In the case of `O=C(Cn1nc(-c2ccccc2)ccc1=O)Nc1ccc2c(c1)OCCO2` [IIIc-64, N-(2,3-dihydrobenzo[b][1,4]dioxin-6-yl)-2-(6-oxo-3-phenylpyridazin-1(6H)-yl)acetamide], the IC50 in assay [1] (Table 4C) and in assay [2] (Table 5C) was greater than 100 µM each time.

As for `O=C(Cn1nc(-c2ccc3c(c2)OCCO3)ccc1=O)Nc1ccccc1F` [IIIb-17, 2-(3-(2,3-dihydrobenzo[b][1,4]dioxin-6-yl)-6-oxopyridazin-1(6H)-yl)-N-(2-fluorophenyl)acetamide], the results for the IC50 in assay [1] (Table 4C) and in assay [2] (Table 5C) were less than 10 µM and greater than 100 µM, respectively.

As for `CCNC(=O)Cn1nc(-c2ccc(N3CC(OC(F)F)C3)nc2)ccc1=O` [Compound I-55, 2-(3-(6-(3-(difluoromethoxy)azetidin-1-yl)pyridin-3-yl)-6-oxopyridazin-1(6H)-yl)-N-ethylacetamide], the concentration for half-maximal inhibition (IC50) in assay [1] (Table 4A) was 10 to 100 µM; in assay [2] (Table 5A) it was greater than 100 µM.

As to `O=C(Cn1nc(-c2ccccc2)ccc1=O)Nc1ccc2[nH]ccc2c1` [IIIc-49, N-(1H-indol-5-yl)-2-(6-oxo-3-phenylpyridazin-1(6H)-yl)acetamide], the IC50 was less than 10 µM in assay [1] (Table 4C) and greater than 100 µM in assay [2] (Table 5C).

`COc1ccc(-c2ccc(=O)n(CC(=O)NCc3ccccc3Cl)n2)c(F)c1` [IIIa-13, N-(2-chlorobenzyl)-2-(3-(2-fluoro-4-methoxyphenyl)-6-oxopyridazin-1(6H)-yl)acetamide]: the IC50 in assay [1] (Table 4C) was less than 10 µM; in assay [2] (Table 5C), greater than 100 µM.

On to `Cn1ccc2c(NC(=O)Cn3nc(-c4ccc(Cl)cc4)ccc3=O)cccc21` [IIIc-20, 2-(3-(4-chlorophenyl)-6-oxopyridazin-1(6H)-yl)-N-(1-methyl-1H-indol-4-yl)acetamide], for which the IC50 is less than 10 µM in assay [1] (Table 4C) and 10 to 100 µM in assay [2] (Table 5C).

In the case of `O=C(Cn1nc(-c2cnc(OCC(F)(F)F)nc2)ccc1=O)NC12CC(C1)C2` [Compound I-51, N-(bicyclo[1.1.1]pentan-1-yl)-2-(6-oxo-3-(2-(2,2,2-trifluoroethoxy)pyrimidin-5-yl)pyridazin-1(6H)-yl)acetamide], the IC50 was less than 10 µM in assay [1] (Table 4A) and greater than 100 µM in assay [2] (Table 5A).

Take `O=C(Cn1nc(-c2ccc(OC(F)F)cc2)ccc1=O)NC1CCC1` [II-9, N-cyclobutyl-2-(3-(4-(difluoromethoxy)phenyl)-6-oxopyridazin-1(6H)-yl)acetamide]: the IC50 is less than 10 µM in assay [1] (Table 4B) and greater than 100 µM in assay [2] (Table 5B).

Regarding `COc1ccc(-c2ccc(=O)n(CC(=O)NCc3ccccc3Cl)n2)cc1C` [IIIa-23, N-(2-chlorobenzyl)-2-(3-(4-methoxy-3-methylphenyl)-6-oxopyridazin-1(6H)-yl)acetamide], the results for the IC50 in assay [1] (Table 4C) and in assay [2] (Table 5C) were 10 to 100 µM and greater than 100 µM, respectively.

Turning to `COc1ccc(-c2ccc(=O)n(CC(=O)NCc3ccc(F)cc3)n2)cc1` [IIIb-50, N-(4-fluorobenzyl)-2-(3-(4-methoxyphenyl)-6-oxopyridazin-1(6H)-yl)acetamide], the IC50 in assay [1] (Table 4C) and in assay [2] (Table 5C) was greater than 100 µM each time.

On to `CC(C)[C@@](C)(C#N)NC(=O)Cn1nc(-c2ccc(OC(F)F)nc2)ccc1=O` (stereo in doubt) [Compound I-34, N-(2-cyano-3-methylbutan-2-yl)-2-(3-(6-(difluoromethoxy)pyridin-3-yl)-6-oxopyridazin-1(6H)-yl)acetamide], for which the IC50 was 10 to 100 µM in assay [1] (Table 4A) and greater than 100 µM in assay [2] (Table 5A).

In the case of `CC[C@@H](C)NC(=O)Cn1nc(-c2ccc(OC(F)F)nc2)ccc1=O` [Compound I-66, (R)-N-(sec-butyl)-2-(3-(6-(difluoromethoxy)pyridin-3-yl)-6-oxopyridazin-1(6H)-yl)acetamide], the IC50 is less than 10 µM in assay [1] (Table 4A) and greater than 100 µM in assay [2] (Table 5A).

For the molecule `COc1ccc(-c2ccc(=O)n(CC(=O)NCc3ccccn3)n2)cc1` [IIIa-30, 2-(3-(4-methoxyphenyl)-6-oxopyridazin-1(6H)-yl)-N-(pyridin-2-ylmethyl) acetamide], the IC50 in assay [1] (Table 4C) and in assay [2] (Table 5C) was greater than 100 µM in each case.

As to `CCc1cccc(NC(=O)Cn2nc(-c3ccc(C)cc3)ccc2=O)c1` [IIIc-1, N-(3-ethylphenyl)-2-(6-oxo-3-(p-tolyl)pyridazin-1(6H)-yl)acetamide], the figures for the IC50 in assay [1] (Table 4C) and in assay [2] (Table 5C) were less than 10 µM and greater than 100 µM, respectively.

In the case of `CCCOc1ncc(-c2ccc(=O)n(CC(=O)NC3CCC3)n2)cn1` [Compound I-73, N-cyclobutyl-2-(6-oxo-3-(2-propoxypyrimidin-5-yl)pyridazin-1(6H)-yl)acetamide], the IC50 in assay [1] (Table 4A) was less than 10 µM; in assay [2] (Table 5A), greater than 100 µM.

Consider `COc1ccc(-c2ccc(=O)n(CC(=O)NCc3cccc(F)c3)n2)c(F)c1` [IIIb-55, 2-(3-(2-fluoro-4-methoxyphenyl)-6-oxopyridazin-1(6H)-yl)-N-(3-fluorobenzyl)acetamide], for which the IC50 in assay [1] (Table 4C) and in assay [2] (Table 5C) was greater than 100 µM each time.

For `COc1ccc(-c2ccc(=O)n(CC(=O)Nc3cccc4c3ccn4C)n2)cc1` [IIIb-4, 2-(3-(4-methoxyphenyl)-6-oxopyridazin-1(6H)-yl)-N-(1-methyl-1H-indol-4-yl)acetamide], the IC50 was less than 10 µM in assay [1] (Table 4C) and 10 to 100 µM in assay [2] (Table 5C).

On to `O=C(Cn1nc(-c2ccc(OCC(F)(F)F)cc2)ccc1=O)N1CCC1c1ccccc1` (stereo not shown) [II-23, 2-(2-oxo-2-(2-phenylazetidin-1-yl)ethyl)-6-(4-(2,2,2-trifluoroethoxy)phenyl)pyridazin-3(2H)-one], for which the IC50 was less than 10 µM in assay [1] (Table 4B) and greater than 100 µM in assay [2] (Table 5B).

Consider `COc1ccc(-c2ccc(=O)n(CC(=O)NC[C@@H]3CC4C=CC3C4)n2)cc1` (stereo partly drawn) [IIIb-39, N-(((2R)-bicyclo[2.2.1]hept-5-en-2-yl)methyl)-2-(3-(4-methoxyphenyl)-6-oxopyridazin-1(6H)-yl)acetamide], for which the IC50 in assay [1] (Table 4C) and in assay [2] (Table 5C) was greater than 100 µM each time.

Turning to `O=C(Cn1nc(-c2ccc3c(c2)OCCO3)ccc1=O)Nc1ccccc1F` [IIIb-6, 2-(3-(2,3-dihydrobenzo[b][1,4]dioxin-6-yl)-6-oxopyridazin-1(6H)-yl)-N-(2-fluorophenyl)acetamide], the results for the IC50 in assay [1] (Table 4C) and in assay [2] (Table 5C) were less than 10 µM and 10 to 100 µM, respectively.

`CCNC(=O)Cn1nc(-c2ccc(N(C)C3CCC3)nc2)ccc1=O` [Compound I-61, 2-(3-(6-(cyclobutyl(methyl)amino)pyridin-3-yl)-6-oxopyridazin-1(6H)-yl)-N-ethylacetamide]: the concentration for half-maximal inhibition (IC50) in assay [1] (Table 4A) was less than 10 µM; in assay [2] (Table 5A) it was 10 to 100 µM.
